Assay results published in publication PMC7558026, “Exploring and applying the substrate promiscuity of a C-glycosyltransferase in the chemo-enzymatic synthesis of bioactive C-glycosides” (Nature Communications, 2020).
Substitutions are numbered along the chain they refer to. In names and notes the source's numbering stands. Several values for one entry are separate records, joined by “and”; a condition that tells them apart may be missing. Equal values may be shown once.

Experiments:
[1] = system: Influenza A/WSN/33 (H1N1); assay: microbe, parasite or virus in culture; assay type: cell-based; conditions: read-out: Inhibitory Rates, anti-influenza A virus activity
[2] = target: T1, SGLT2 (Homo sapiens, UniProt P31639); assay: 1-NBDG uptake in HEK293 cells stably expressing SGLT2; assay type: cell-based; conditions: triplicate; for inhibition at 10 µM: HEK293, compound at 10 μM, read-out: SGLT2 inhibitory rates; for SGLT2 inhibitory rates: compound at 10 μM, 10 µM
T1 construct: Human full-length SGLT2 cDNA (NM_003041.3) was synthesized; expressed in transfected cells; host or cells: HEK293, retroviral transduction with pMSCVpuro-SGLT2, puromycin selected
T1 sequence (P31639 1-672): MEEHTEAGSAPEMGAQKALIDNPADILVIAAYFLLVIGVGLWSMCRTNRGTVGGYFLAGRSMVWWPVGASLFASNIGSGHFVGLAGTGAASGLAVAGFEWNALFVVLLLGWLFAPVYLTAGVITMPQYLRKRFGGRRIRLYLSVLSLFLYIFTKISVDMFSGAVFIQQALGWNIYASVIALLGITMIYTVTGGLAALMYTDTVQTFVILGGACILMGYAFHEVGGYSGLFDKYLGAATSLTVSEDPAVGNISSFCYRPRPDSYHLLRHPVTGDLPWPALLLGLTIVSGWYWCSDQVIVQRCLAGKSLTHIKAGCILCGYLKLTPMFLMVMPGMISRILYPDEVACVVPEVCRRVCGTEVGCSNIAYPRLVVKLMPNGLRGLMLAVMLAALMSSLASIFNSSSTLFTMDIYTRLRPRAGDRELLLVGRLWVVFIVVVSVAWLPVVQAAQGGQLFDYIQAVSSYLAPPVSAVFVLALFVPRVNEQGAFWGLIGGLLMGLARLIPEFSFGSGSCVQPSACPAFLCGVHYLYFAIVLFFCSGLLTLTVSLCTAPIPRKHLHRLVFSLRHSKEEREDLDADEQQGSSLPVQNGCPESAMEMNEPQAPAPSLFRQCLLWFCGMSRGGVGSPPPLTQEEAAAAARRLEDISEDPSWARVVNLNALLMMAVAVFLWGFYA

[3] = target: T2, SGLT1 (Homo sapiens, UniProt P13866); assay: 1-NBDG uptake in HEK293 cells stably expressing SGLT1; assay type: cell-based; conditions: HEK293, compound at 10 μM; triplicate; read-out: SGLT1 inhibitory rates
T2 construct: The full-length SGLT1 cDNA was obtained by PCR with forward primer; expressed in transfected cells
T2 sequence (P13866 1-664): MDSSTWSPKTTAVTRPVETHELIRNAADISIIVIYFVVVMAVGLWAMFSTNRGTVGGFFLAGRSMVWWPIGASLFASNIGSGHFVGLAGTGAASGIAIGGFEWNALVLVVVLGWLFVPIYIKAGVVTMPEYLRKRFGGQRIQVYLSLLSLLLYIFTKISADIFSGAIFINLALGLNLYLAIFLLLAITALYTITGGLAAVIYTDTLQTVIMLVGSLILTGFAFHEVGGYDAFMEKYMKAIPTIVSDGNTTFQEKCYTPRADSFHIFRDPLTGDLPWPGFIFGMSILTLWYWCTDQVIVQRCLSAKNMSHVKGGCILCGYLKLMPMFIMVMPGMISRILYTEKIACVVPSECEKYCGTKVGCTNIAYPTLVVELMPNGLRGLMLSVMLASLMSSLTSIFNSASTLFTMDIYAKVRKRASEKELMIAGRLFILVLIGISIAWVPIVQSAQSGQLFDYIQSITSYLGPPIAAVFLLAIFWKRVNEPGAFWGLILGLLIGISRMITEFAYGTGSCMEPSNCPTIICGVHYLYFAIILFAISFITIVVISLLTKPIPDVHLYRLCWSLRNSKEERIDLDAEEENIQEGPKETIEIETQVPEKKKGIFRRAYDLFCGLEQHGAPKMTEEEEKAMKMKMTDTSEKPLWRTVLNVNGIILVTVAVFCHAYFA

[4] = system: alloxan-induced DM mice; assay: Hypoglycemic effect in alloxan-induced diabetic mellitus (DM) mice; assay type: in vivo; conditions: individual mice
Protocol: Type 1 diabetes mellitus (T1DM) mice were established by intravenous injection of alloxan tetrahydrate (68 mg kg^‒1 BW). […] Nonfasting blood glucose was kinetically monitored at 1, 2, 4, 6, 8, 24, and 48 h after treatment with 46a.

[5] = system: ICR mice; assay: Oral glucose-tolerance test (OGTT) in normal ICR mice; assay type: in vivo; conditions: individual mice
Protocol: The hypoglycemic effect of 46a was firstly evaluated by oral glucose-tolerance test (OGTT) in mice with normal blood glucose levels. Male Institute of Cancer Research (ICR) mice weighing 24–26 g were obtained from Beijing Vital River Laboratory Animal Technology Co., Ltd (Beijing, China) and divided into three groups (n = 7–8). […] After 2 h of fasting, blood samples were collected from the tails for determination of baseline values of blood glucose (0 min). The mice were then orally administered glucose (2 g kg^‒1 BW), and blood samples were collected at 15, 30, 60, and 120 min. A glucose oxidase (GOD) assay was used for blood glucose-level measurement. The values of area under the glucose-time curve (AUC) were calculated.

[6] = system: KKAy mice; assay: Hypoglycemic effect in T2DM KKAy mice, blood glucose; assay type: in vivo; conditions: individual mice
Protocol: (§1) To evaluate the hypoglycemic effect of 46a in type 2 diabetes mellitus (T2DM), female KKAy mice weighing 42–48 g were obtained from the Animal Center of the Institute of Laboratory Animal Sciences, Chinese Academy of Medical Sciences and Peking Union Medical College. […] Blood samples were collected at 1, 2, 4, 6, 8, 24, and 48 h after treatment. […] The glucose levels in urine 4 h and 6 h after administration were also determined using a Biosen C-Line Glucose analyzer (EKF Diagnostics, Germany).

[7] = system: KKAy mice; assay: Urinary glucose excretion in T2DM KKAy mice; assay type: in vivo; conditions: 46a 100 mg kg^‒1 or dapagliflozin 5mg/kg, individual mice
Protocol: as §1

[8] = substrate: O=C1C[C@@](O)(c2ccc(O)cc2)Oc2cc(O)cc(O)c21; assay: Kinetic parameters of AbCGT variant V183E; assay type: biochemical, Aloe barbadensis; conditions: other: V183E, UDP-Glc as donor; pH 7.4; 30.0 °C
Protocol: (§2) Assays were performed in a final volume of 100 μL 50 mM Tris-HCl (pH 7.4) at 30 °C, and contained purified recombinant AbCGT (1.5 μg) and saturating UDP-Glc (5 mM) while varying phloracetophene (11) and phloretin (17) concentrations (5–500 μM), respectively. The reactions terminated by the addition of 200 μL of ice-cold methanol. Subsequently, samples were centrifuged at 15,000 × g for 30 min to collect the supernatant, and aliquots were analyzed by HPLC as described above. All experiments were performed in triplicate. The value of Km was calculated with the method of Lineweaver–Burk plot.
(§3) Site-saturation mutagenesis of AbCGT at residue 183 was performed by PCR using pET28a-AbCGT as a template and the corresponding degenerate primers, which are listed in Supplementary Table 5. PCR products were purified and transformed into Trans1-T1 (DE3) E. coli. The sequences of pET28a-AbCGT mutants were confirmed by sequencing, and transformed into Transetta (DE3) E. coli for heterologous expression following protein purification.

[9] = substrate: O=C1C[C@@](O)(c2ccc(O)cc2)Oc2cc(O)cc(O)c21; assay: Kinetic parameters of AbCGT variant V183D; assay type: biochemical, Aloe barbadensis; conditions: other: V183D, UDP-Glc as donor; pH 7.4; 30.0 °C
Protocol: as §2, §3

OCC1OC(c2c(O)cc(O)c(Cc3ccc4nccnc4c3)c2O)C(O)C(O)C1O (stereo not shown) [Compound 44a]
inhibition at 20 µM ([1]; final concentration 20 μM, — = no inhibition activity): 82.8%
inhibition at 10 µM [2]: > 96%
SGLT2 inhibitory rates [2]: 96.6%
inhibition at 10 µM [3]: 31.8%

CCOc1ccc(Cc2cc([C@@H]3O[C@H](CO)[C@@H](O)[C@H](O)[C@H]3O)ccc2Cl)cc1 [Dapagliflozin, reference compound]
OD505nm (nonfasting blood glucose) ([4]; 0h, alloxan-induced DM mice, single dose 46a 100 mg kg^‒1 or dapagliflozin 5 mg kg^‒1): 0.567 and 0.574 and 0.561 and 0.564 and 0.434 and 0.496 and 0.426 and 0.589
OD505nm (nonfasting blood glucose) ([4]; 1h, same doses): 0.393 and 0.333 and 0.301 and 0.52 and 0.314 and 0.35 and 0.222 and 0.29
OD505nm (nonfasting blood glucose) ([4]; 2h, same doses): 0.27 and 0.388 and 0.281 and 0.364 and 0.279 and 0.346 and 0.193 and 0.231
OD505nm (nonfasting blood glucose) ([4]; 4h, same doses): 0.352 and 0.41 and 0.322 and 0.471 and 0.197 and 0.266 and 0.208 and 0.227
OD505nm (nonfasting blood glucose) ([4]; 8h, same doses): 0.347 and 0.446 and 0.312 and 0.421 and 0.195 and 0.25 and 0.231 and 0.327
OD505nm (nonfasting blood glucose) ([4]; 24h, same doses): 0.536 and 0.578 and 0.561 and 0.735 and 0.409 and 0.563 and 0.408 and 0.501
OD505nm (nonfasting blood glucose) ([4]; 48h, same doses): 0.513 and 0.594 and 0.579 and 0.796 and 0.531 and 0.647 and 0.477 and 0.584
OD505nm (blood glucose, GOD assay) in OGTT ([5]; 0 min, ICR mice, oral 46a 100 mg kg^‒1 or dapagliflozin 5 mg kg^‒1): 0.188 and 0.144 and 0.165 and 0.159 and 0.17 and 0.15 and 0.177 and 0.146
OD505nm (blood glucose, GOD assay) in OGTT ([5]; 15 min after glucose 2 g kg^‒1, oral 46a 100 mg kg^‒1 or dapagliflozin 5 mg kg^‒1): 0.243 and 0.23 and 0.198 and 0.207 and 0.185 and 0.182 and 0.211 and 0.199
OD505nm (blood glucose, GOD assay) in OGTT ([5]; 30 min after glucose, same doses): 0.2 (2×) and 0.22 and 0.193 and 0.178 and 0.196 and 0.205 and 0.204
OD505nm (blood glucose, GOD assay) in OGTT ([5]; 60 min after glucose, same doses): 0.209 and 0.178 and 0.176 and 0.169 and 0.175 and 0.171 and 0.182 and 0.185
OD505nm (blood glucose, GOD assay) in OGTT ([5]; 120 min after glucose, same doses): 0.173 and 0.17 and 0.162 and 0.165 (2×) and 0.166 and 0.157 and 0.167
inhibition at 10 µM [2]: 100%
SGLT2 inhibitory rates [2]: 102.4%
inhibition at 10 µM [3]: 98.4%
blood glucose ([6]; 0h, KKAy mice, single dose 46a 100 mg kg^‒1 or dapagliflozin 5 mg kg^‒1): 376.7 mg/dL and 390 mg/dL and 405.5 mg/dL and 293.3 mg/dL and 575.6 mg/dL and 463.6 mg/dL and 388.1 mg/dL
blood glucose ([6]; 1h, same doses): 205.5 mg/dL and 228.8 mg/dL and 391.4 mg/dL and 363.9 mg/dL and 193.8 mg/dL and 248.6 mg/dL and 235.8 mg/dL
blood glucose ([6]; 2h, same doses): 279.3 mg/dL and 221.6 mg/dL and 285.4 mg/dL and 256 mg/dL and 184.4 mg/dL and 245.5 mg/dL and 256.8 mg/dL
blood glucose ([6]; 4h, same doses): 138 mg/dL and 102 mg/dL and 48.9 mg/dL and 98.1 mg/dL and 137.3 mg/dL and 182.3 mg/dL and 181.7 mg/dL
blood glucose ([6]; 6h, same doses): 123.1 mg/dL and 172.3 mg/dL and 164.6 mg/dL and 79.8 mg/dL and 177.1 mg/dL and 134.4 mg/dL
blood glucose ([6]; 8h, same doses): 91.6 mg/dL and 196.3 mg/dL and 150.5 mg/dL and 208.1 mg/dL and 124.9 mg/dL and 86.9 mg/dL
blood glucose ([6]; 24h, same doses): 254.9 mg/dL and 217.5 mg/dL and 176.2 mg/dL and 237.1 mg/dL and 286.9 mg/dL and 219.8 mg/dL
blood glucose ([6]; 48h, same doses): 395.7 mg/dL and 347.1 mg/dL and 229.8 mg/dL and 332.5 mg/dL and 388.1 mg/dL and 274.9 mg/dL
glucose in urine ([7]; 4h): 13936 mg/dL and 9326 mg/dL and 12440 mg/dL and 15728 mg/dL
glucose in urine ([7]; 6h): 15122 mg/dL and 8208 mg/dL and 11640 mg/dL and 11138 mg/dL

NC(=O)c1ncn([C@@H]2O[C@H](CO)[C@@H](O)[C@H]2O)n1 [Ribavirin, reference compound]
inhibition at 30 µM ([1]; ribavirin (positive control) at 30 μM): 85.6%

B1: AbCGT V183E (Aloe vera; V183E) (protein)
chain: MSNSGRPHVALLPSAGMGHLTPFCRLAALLSSRGGGDLDVSFITAEPTVSLKEYLQIRDLLSSFPSIKSHRFKVPELSPSQFPSSPDPFFQQWESIRRCAHLLPPLLASATALIIDTASASAVLPVAKQLNIPAYILFTSSASMLSLVAHFPSHVISSTSPSAPLMSNILIPGLKHPVPAAWEPPPLHVPGHIFSTLTVDNGRCLPEADGVIINTFDALEPEVLAALNGGRVAHGLPRVFAVGPLVAPPPPQQMEETGGGDYPIAWLDRQRDKSVVYVSFGSRTAMSPEQIRELAAGLERSGCSFLWVIKTKKVDRDEEETDLGALLGEGYVERVKGRGLVVNGWVEQEEILRHRAVGGFVSHCGWNSVTEAAVAGVRVLCWPRMGDQRLNAEVVRRSGVGVWMEEWSWEAEGGVVGGEEIGRRVKEMMEDEGLRDSAERVAEEARVALGVGGTSSKEMEEFISRIMMGS
Km [8]: 325.4 ± 19.2 µM
kcat/Km [8]: 0.0348 M⁻¹ s⁻¹

B2: AbCGT V183D (Aloe vera; V183D) (protein)
chain: B1 chain with E183D
Km [9]: 209.3 ± 14.3 µM
kcat/Km [9]: 0.0283 M⁻¹ s⁻¹
